How the values were obtained:
[1] = molecular target: T1, Discoidin domain-containing receptor 2 (Homo sapiens) (UniProt Q16832); experiment: Selectivity interaction (KinomeScan (DiscoverX)) EUB0000229b DDR2; conditions: at 10 µM
T1 sequence (whole entry): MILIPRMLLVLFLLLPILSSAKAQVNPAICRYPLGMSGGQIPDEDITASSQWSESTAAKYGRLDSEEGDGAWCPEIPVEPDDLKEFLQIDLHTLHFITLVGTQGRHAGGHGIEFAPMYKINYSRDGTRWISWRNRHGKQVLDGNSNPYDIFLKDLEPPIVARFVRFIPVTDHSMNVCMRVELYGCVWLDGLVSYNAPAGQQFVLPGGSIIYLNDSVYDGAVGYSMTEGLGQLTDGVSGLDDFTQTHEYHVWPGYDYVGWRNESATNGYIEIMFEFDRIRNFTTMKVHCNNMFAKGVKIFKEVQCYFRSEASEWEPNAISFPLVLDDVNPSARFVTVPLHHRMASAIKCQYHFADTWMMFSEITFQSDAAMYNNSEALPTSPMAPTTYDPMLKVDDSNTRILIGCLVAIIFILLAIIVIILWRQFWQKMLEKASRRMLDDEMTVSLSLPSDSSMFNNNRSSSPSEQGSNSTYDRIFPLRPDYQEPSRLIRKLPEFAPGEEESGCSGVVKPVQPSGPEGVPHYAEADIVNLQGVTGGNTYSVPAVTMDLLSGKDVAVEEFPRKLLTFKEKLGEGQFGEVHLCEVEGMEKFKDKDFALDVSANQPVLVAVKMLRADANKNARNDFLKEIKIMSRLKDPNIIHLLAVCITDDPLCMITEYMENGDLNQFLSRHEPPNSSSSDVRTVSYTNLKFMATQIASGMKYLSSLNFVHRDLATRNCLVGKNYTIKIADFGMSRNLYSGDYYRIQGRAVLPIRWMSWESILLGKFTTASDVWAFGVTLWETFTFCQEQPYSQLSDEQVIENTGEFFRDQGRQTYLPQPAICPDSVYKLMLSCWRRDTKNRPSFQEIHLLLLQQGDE

[2] = molecular target: T2, Serine/threonine-protein kinase RIO3 (Homo sapiens) (UniProt O14730); conditions: at 10 µM
T2 sequence (whole entry): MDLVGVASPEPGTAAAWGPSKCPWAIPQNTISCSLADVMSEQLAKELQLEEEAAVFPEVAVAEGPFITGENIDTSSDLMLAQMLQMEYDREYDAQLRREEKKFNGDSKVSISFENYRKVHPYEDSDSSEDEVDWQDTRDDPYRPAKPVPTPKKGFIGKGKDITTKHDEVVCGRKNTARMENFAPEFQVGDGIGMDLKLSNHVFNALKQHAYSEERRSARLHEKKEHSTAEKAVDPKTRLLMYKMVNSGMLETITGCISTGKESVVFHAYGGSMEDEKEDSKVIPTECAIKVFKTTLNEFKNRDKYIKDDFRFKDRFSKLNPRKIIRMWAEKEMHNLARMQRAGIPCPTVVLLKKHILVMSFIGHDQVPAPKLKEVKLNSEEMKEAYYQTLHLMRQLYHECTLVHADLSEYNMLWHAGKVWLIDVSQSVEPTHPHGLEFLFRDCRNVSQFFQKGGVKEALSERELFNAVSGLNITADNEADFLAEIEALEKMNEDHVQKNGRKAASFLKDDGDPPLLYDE

[3] = molecular target: Serine/threonine-protein kinase 24 (Homo sapiens) (UniProt Q9Y6E0); experiment: Selectivity interaction (KinomeScan (DiscoverX)) EUB0000699a STK24; conditions: at 10 µM
Chain of Serine/threonine-protein kinase 24 (Homo sapiens) (Q9Y6E0 whole entry, looked up): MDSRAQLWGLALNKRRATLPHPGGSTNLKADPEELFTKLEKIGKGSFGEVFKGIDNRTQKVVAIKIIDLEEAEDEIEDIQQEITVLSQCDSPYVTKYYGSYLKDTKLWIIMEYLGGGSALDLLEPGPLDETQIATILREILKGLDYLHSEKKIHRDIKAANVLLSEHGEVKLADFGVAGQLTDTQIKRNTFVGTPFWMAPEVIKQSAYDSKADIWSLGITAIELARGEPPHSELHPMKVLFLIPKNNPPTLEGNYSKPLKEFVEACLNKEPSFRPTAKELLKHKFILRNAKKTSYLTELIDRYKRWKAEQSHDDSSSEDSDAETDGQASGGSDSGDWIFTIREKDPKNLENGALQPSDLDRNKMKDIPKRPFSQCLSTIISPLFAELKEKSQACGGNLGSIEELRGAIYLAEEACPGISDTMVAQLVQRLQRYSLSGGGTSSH

[4] = molecular target: T3, Interleukin-1 receptor-associated kinase 3 (Homo sapiens) (UniProt Q9Y616); experiment: Selectivity interaction (ActivX KiNativ screen (kinase selectivity in THP-1 cell lysates)) EUB0000639a IRAK3; format: subcellular; conditions: lysate, at 0.01 µM
T3 sequence (whole entry): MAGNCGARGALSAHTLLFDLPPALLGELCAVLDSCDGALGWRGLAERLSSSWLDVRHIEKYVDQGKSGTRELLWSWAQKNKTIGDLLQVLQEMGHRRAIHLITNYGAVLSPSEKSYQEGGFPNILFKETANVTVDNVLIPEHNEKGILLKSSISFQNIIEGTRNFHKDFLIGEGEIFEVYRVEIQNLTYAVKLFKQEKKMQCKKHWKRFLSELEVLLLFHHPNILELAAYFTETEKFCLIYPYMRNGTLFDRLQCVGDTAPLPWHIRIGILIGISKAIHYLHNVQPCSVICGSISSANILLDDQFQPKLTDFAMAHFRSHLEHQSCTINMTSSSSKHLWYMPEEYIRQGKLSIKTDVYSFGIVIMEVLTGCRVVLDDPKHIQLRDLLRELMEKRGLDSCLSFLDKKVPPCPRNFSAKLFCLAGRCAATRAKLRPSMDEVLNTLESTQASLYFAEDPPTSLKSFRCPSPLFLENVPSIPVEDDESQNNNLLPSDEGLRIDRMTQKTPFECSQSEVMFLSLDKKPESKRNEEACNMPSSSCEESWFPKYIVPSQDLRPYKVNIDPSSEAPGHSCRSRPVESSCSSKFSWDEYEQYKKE

[5] = molecular target: Tyrosine-protein kinase JAK1 (Homo sapiens, UniProt P23458); experiment: Selectivity interaction (KinomeScan (DiscoverX)) EUB0000695a JAK1; conditions: at 100 nM
Chain of Tyrosine-protein kinase JAK1 (P23458 whole entry): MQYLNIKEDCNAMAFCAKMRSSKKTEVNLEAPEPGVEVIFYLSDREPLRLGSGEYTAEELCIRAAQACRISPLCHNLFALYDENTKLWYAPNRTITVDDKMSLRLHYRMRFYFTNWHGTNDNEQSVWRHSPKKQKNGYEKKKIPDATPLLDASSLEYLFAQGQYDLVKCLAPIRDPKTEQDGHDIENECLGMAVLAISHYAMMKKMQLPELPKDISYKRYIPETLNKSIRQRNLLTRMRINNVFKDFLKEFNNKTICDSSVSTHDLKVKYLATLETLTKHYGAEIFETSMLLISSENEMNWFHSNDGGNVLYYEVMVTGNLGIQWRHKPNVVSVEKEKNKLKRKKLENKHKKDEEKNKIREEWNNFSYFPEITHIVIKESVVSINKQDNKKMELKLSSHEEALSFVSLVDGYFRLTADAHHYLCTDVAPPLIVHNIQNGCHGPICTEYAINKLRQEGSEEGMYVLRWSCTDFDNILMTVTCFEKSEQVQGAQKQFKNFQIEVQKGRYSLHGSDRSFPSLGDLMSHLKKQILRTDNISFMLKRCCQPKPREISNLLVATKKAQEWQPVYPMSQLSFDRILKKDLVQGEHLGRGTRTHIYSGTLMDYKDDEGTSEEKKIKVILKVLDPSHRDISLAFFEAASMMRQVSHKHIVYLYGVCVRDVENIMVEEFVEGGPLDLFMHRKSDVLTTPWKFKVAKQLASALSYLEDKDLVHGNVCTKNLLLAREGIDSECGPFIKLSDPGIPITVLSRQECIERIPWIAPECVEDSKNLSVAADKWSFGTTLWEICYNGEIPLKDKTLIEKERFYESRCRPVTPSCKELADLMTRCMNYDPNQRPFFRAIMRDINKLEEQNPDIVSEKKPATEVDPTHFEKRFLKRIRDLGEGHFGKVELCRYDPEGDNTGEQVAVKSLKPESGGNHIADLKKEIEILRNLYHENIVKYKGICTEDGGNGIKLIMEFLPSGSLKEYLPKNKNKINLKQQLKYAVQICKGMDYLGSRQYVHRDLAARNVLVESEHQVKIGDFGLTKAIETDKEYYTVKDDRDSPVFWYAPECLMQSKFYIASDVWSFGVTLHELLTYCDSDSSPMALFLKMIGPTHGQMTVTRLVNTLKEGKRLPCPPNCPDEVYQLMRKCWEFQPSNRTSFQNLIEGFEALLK

[6] = molecular target: Myosin light chain kinase 2, skeletal/cardiac muscle (Homo sapiens) (UniProt Q9H1R3); experiment: Selectivity interaction (Kinase panel (Z-LYTE Assay)) EUB0001632a MYLK2; conditions: at 10 µM
Chain of Myosin light chain kinase 2, skeletal/cardiac muscle (Homo sapiens) (Q9H1R3 whole entry): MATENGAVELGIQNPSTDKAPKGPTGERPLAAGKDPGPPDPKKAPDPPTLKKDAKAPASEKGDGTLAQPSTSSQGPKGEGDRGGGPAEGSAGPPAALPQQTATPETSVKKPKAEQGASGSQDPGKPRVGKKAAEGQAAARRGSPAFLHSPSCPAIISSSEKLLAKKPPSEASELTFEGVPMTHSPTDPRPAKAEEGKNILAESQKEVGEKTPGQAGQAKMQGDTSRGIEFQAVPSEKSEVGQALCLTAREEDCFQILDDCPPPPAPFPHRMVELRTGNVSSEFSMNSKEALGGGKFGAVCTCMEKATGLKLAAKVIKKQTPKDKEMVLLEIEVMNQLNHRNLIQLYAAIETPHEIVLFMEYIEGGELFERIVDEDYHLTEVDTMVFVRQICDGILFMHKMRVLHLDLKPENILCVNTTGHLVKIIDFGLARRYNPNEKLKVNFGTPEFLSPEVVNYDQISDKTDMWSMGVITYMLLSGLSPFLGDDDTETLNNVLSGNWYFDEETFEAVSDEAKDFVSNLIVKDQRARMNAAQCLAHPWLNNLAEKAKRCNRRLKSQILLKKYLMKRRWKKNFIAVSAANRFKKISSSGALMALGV

[7] = molecular target: T4, Protein kinase C iota type (Homo sapiens) (UniProt P41743); experiment: Selectivity interaction (Kinase panel (Z-LYTE Assay)) EUB0001632a PRKCI; conditions: at 10 µM
T4 sequence (whole entry): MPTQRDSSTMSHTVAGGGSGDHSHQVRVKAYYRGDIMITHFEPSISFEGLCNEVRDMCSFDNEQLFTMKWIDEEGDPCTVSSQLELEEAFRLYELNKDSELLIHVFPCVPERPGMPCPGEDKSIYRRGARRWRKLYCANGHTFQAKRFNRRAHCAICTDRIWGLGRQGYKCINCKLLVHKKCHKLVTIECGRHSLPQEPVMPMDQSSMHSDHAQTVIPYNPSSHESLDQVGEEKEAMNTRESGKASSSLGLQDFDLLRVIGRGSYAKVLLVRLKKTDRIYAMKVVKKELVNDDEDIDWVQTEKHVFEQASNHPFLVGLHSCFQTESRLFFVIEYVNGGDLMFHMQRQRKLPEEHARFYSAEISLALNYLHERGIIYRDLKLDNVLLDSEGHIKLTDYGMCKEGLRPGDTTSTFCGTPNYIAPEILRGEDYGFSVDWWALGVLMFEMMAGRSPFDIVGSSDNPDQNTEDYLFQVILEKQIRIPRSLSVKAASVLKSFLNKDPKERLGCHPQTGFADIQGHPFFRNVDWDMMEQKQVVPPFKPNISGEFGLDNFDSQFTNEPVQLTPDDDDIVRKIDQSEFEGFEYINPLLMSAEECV

COc1cc(N(C)c2ccnc3ccc(C(F)(F)F)cc23)cc(OC)c1OC
% binding [1]: 93%

CCN(CC)CCCCNc1ncc2cc(-c3cc(OC)cc(OC)c3)c(NC(=O)NC(C)(C)C)nc2n1
% of control [2]: 100% | % of control [3]: 7%

CC[C@@H]1[C@H](F)C(=O)N[C@@H]1COc1nccc2cc(C(N)=O)c(OC)cc12 [ZIMLOVISERTIB]
% of inhibition [4]: -5.3%

Cc1cc(F)c(C(=O)Nc2cccc(-c3nncn3C(C)C)n2)cc1-n1cnc(C2CC2)c1
% of control [5]: 60%

Cn1cc(-n2cnc3c(NCc4nc5cc(Cl)c(Cl)cc5[nH]4)nc(N4CCOCC4)nc32)cn1
% of control [6]: 3.79% | % of control [7]: 8.02%

Source: ChEMBL document CHEMBL5465560, “Selectivity Literature for EUbOPEN Chemogenomic Library” (2024)
